# Patent US7432397B2, “Imaging compounds” (Hammersmith Imanet Ltd., priority 2002, dated 2008)
# Marks after values point to notes of the source that are not given here.
# Experiment: Biodistribution of radioactivity in rat tissues after intravenous injection
# Type: in vivo
# Settings: for Radioactivity in Cerebellum / Radioactivity in Entorhinal cortex / Radioactivity in Fat / Radioactivity in Heart (ventricle) / Radioactivity in Hippocampus / Radioactivity in Hypothalamus / Radioactivity in Inferior collicull / Radioactivity in Kidney / Radioactivity in Large intestine / Radioactivity in Lge. intestine content / Radioactivity in Liver / Radioactivity in Lung / Radioactivity in Medulla with Pons / Radioactivity in Olfactory bulbs / Radioactivity in Olfactory tubercles / Radioactivity in Prefrontal cortex / Radioactivity in Skeletal muscle / Radioactivity in Skin / Radioactivity in Sm. intestine content / Radioactivity in Small intestine / Radioactivity in Somatosensory cortex / Radioactivity in Spleen / Radioactivity in Stomach / Radioactivity in Striata / Radioactivity in Superior collicull / Radioactivity in Testis / Radioactivity in Thalamus / Radioactivity in Visual cortex / Radioactivity in Plasma / Radioactivity in Whole blood / Radioactivity in Urine: i.v.; for Radioactivity in Plasma / Radioactivity in Whole blood: composite curve of 9 rats
# Method: Sixteen adult male Sprague-Dawley rats (body weight 250-320 g: mean±SD=288±25 g) were used in 5 separate experiments. Each rat was injected with ˜13 MBq Compound 1, at a specific activity of […], via a previously catheterised tail vein. The associated stable compound was 0.5±0.2 nmol/kg. Discrete samples of arterial blood were collected from 9 of the rats via a previously catheterised tail artery.
# Tissues were sampled post-mortem using an established protocol, as described in Hirani et al, Synapse 42:164-176 (2001). The radioactivity concentration data obtained at 12 times up to 90 min after radioligand injection were normalised for both amount injected and body weight, giving:—‘uptake units’=(cpm/g tissue)/(injected cpm/g body weight).
smiles,measurement,setting,value
"CSc1cccc(N([11CH3])C(=N)Nc2cc(SC)ccc2Cl)c1 [Compound 1, (N-(2-chloro-5-(methylthio)phenyl)-N′-(3-methylthio)phenyl)-N′-[N-methyl-^11C]-methylguanidine]",extraction of radioactivity into the brain,following intravenous injection,high extraction
same,Radioactivity in Cerebellum,1 min,2.21 Uptake Units
same,Radioactivity in Entorhinal cortex,1 min,1.92 Uptake Units
same,Radioactivity in Fat,1 min,0.15 Uptake Units
same,Radioactivity in Heart (ventricle),1 min,10.4 Uptake Units
same,Radioactivity in Hippocampus,1 min,1.61 Uptake Units
same,Radioactivity in Hypothalamus,1 min,2.31 Uptake Units
same,Radioactivity in Inferior collicull,1 min,3.42 Uptake Units
same,Radioactivity in Kidney,1 min,12.5 Uptake Units
same,Radioactivity in Large intestine,1 min,2.71 Uptake Units
same,Radioactivity in Lge. intestine content,1 min,0.11 Uptake Units
same,Radioactivity in Liver,1 min,2.48 Uptake Units
same,Radioactivity in Lung,1 min,56.4 Uptake Units
same,Radioactivity in Medulla with Pons,1 min,2.18 Uptake Units
same,Radioactivity in Olfactory bulbs,1 min,2.34 Uptake Units
same,Radioactivity in Olfactory tubercles,1 min,2.49 Uptake Units
same,Radioactivity in Prefrontal cortex,1 min,2.52 Uptake Units
same,Radioactivity in Skeletal muscle,1 min,1.07 Uptake Units
same,Radioactivity in Skin,1 min,0.47 Uptake Units
same,Radioactivity in Sm. intestine content,1 min,4.96 Uptake Units
same,Radioactivity in Small intestine,1 min,3.38 Uptake Units
same,Radioactivity in Somatosensory cortex,1 min,2.22 Uptake Units
same,Radioactivity in Spleen,1 min,3.04 Uptake Units
same,Radioactivity in Stomach,1 min,1.60 Uptake Units
same,Radioactivity in Striata,1 min,2.13 Uptake Units
same,Radioactivity in Superior collicull,1 min,2.42 Uptake Units
same,Radioactivity in Testis,1 min,0.50 Uptake Units
same,Radioactivity in Thalamus,1 min,2.59 Uptake Units
same,Radioactivity in Visual cortex,1 min,2.46 Uptake Units
same,Radioactivity in Plasma,1 min,0.51 Uptake Units
same,Radioactivity in Whole blood,1 min,0.59 Uptake Units
same,Radioactivity in Cerebellum,2 min,2.47 Uptake Units
same,Radioactivity in Entorhinal cortex,2 min,2.13 Uptake Units
same,Radioactivity in Fat,2 min,0.18 Uptake Units
same,Radioactivity in Heart (ventricle),2 min,8.20 Uptake Units
same,Radioactivity in Hippocampus,2 min,1.73 Uptake Units
same,Radioactivity in Hypothalamus,2 min,2.29 Uptake Units
same,Radioactivity in Inferior collicull,2 min,3.65 Uptake Units
same,Radioactivity in Kidney,2 min,10.8 Uptake Units
same,Radioactivity in Large intestine,2 min,3.11 Uptake Units
same,Radioactivity in Lge. intestine content,2 min,0.21 Uptake Units
same,Radioactivity in Liver,2 min,1.65 Uptake Units
same,Radioactivity in Lung,2 min,44.5 Uptake Units
same,Radioactivity in Medulla with Pons,2 min,2.35 Uptake Units
same,Radioactivity in Olfactory bulbs,2 min,2.50 Uptake Units
same,Radioactivity in Olfactory tubercles,2 min,2.56 Uptake Units
same,Radioactivity in Prefrontal cortex,2 min,2.73 Uptake Units
same,Radioactivity in Skeletal muscle,2 min,1.14 Uptake Units
same,Radioactivity in Skin,2 min,0.54 Uptake Units
same,Radioactivity in Sm. intestine content,2 min,5.62 Uptake Units
same,Radioactivity in Small intestine,2 min,3.87 Uptake Units
same,Radioactivity in Somatosensory cortex,2 min,2.56 Uptake Units
same,Radioactivity in Spleen,2 min,2.65 Uptake Units
same,Radioactivity in Stomach,2 min,1.49 Uptake Units
same,Radioactivity in Striata,2 min,2.33 Uptake Units
same,Radioactivity in Superior collicull,2 min,2.64 Uptake Units
same,Radioactivity in Testis,2 min,0.51 Uptake Units
same,Radioactivity in Thalamus,2 min,2.41 Uptake Units
same,Radioactivity in Visual cortex,2 min,2.71 Uptake Units
same,Radioactivity in Plasma,2 min,0.37 Uptake Units
same,Radioactivity in Whole blood,2 min,0.42 Uptake Units
same,Radioactivity in Cerebellum,5 min,2.43 Uptake Units
same,Radioactivity in Entorhinal cortex,5 min,2.16 Uptake Units
same,Radioactivity in Fat,5 min,0.23 Uptake Units
same,Radioactivity in Heart (ventricle),5 min,4.27 Uptake Units
same,Radioactivity in Hippocampus,5 min,2.00 Uptake Units
same,Radioactivity in Hypothalamus,5 min,2.28 Uptake Units
same,Radioactivity in Inferior collicull,5 min,3.23 Uptake Units
same,Radioactivity in Kidney,5 min,8.70 Uptake Units
same,Radioactivity in Large intestine,5 min,2.73 Uptake Units
same,Radioactivity in Lge. intestine content,5 min,0.13 Uptake Units
same,Radioactivity in Liver,5 min,2.95 Uptake Units
same,Radioactivity in Lung,5 min,38.7 Uptake Units
same,Radioactivity in Medulla with Pons,5 min,2.34 Uptake Units
same,Radioactivity in Olfactory bulbs,5 min,2.18 Uptake Units
same,Radioactivity in Olfactory tubercles,5 min,2.42 Uptake Units
same,Radioactivity in Prefrontal cortex,5 min,2.67 Uptake Units
same,Radioactivity in Skeletal muscle,5 min,1.32 Uptake Units
same,Radioactivity in Skin,5 min,0.61 Uptake Units
same,Radioactivity in Sm. intestine content,5 min,6.84 Uptake Units
same,Radioactivity in Small intestine,5 min,3.17 Uptake Units
same,Radioactivity in Somatosensory cortex,5 min,2.69 Uptake Units
same,Radioactivity in Spleen,5 min,3.85 Uptake Units
same,Radioactivity in Stomach,5 min,1.26 Uptake Units
same,Radioactivity in Striata,5 min,2.35 Uptake Units
same,Radioactivity in Superior collicull,5 min,2.59 Uptake Units
same,Radioactivity in Testis,5 min,0.56 Uptake Units
same,Radioactivity in Thalamus,5 min,2.59 Uptake Units
same,Radioactivity in Urine,5 min,11.7 Uptake Units
same,Radioactivity in Visual cortex,5 min,3.05 Uptake Units
same,Radioactivity in Plasma,5 min,0.24 Uptake Units
same,Radioactivity in Whole blood,5 min,0.26 Uptake Units
same,Radioactivity in Cerebellum,10 min,2.08 Uptake Units
same,Radioactivity in Entorhinal cortex,10 min,2.04 Uptake Units
same,Radioactivity in Fat,10 min,0.50 Uptake Units
same,Radioactivity in Heart (ventricle),10 min,2.20 Uptake Units
same,Radioactivity in Hippocampus,10 min,1.81 Uptake Units
same,Radioactivity in Hypothalamus,10 min,2.13 Uptake Units
same,Radioactivity in Inferior collicull,10 min,2.69 Uptake Units
same,Radioactivity in Kidney,10 min,5.72 Uptake Units
same,Radioactivity in Large intestine,10 min,1.92 Uptake Units
same,Radioactivity in Lge. intestine content,10 min,0.17 Uptake Units
same,Radioactivity in Liver,10 min,4.38 Uptake Units
same,Radioactivity in Lung,10 min,35.3 Uptake Units
same,Radioactivity in Medulla with Pons,10 min,2.26 Uptake Units
same,Radioactivity in Olfactory bulbs,10 min,1.91 Uptake Units
same,Radioactivity in Olfactory tubercles,10 min,2.14 Uptake Units
same,Radioactivity in Prefrontal cortex,10 min,2.52 Uptake Units
same,Radioactivity in Skeletal muscle,10 min,1.05 Uptake Units
same,Radioactivity in Skin,10 min,0.70 Uptake Units
same,Radioactivity in Sm. intestine content,10 min,5.31 Uptake Units
same,Radioactivity in Small intestine,10 min,2.49 Uptake Units
same,Radioactivity in Somatosensory cortex,10 min,2.49 Uptake Units
same,Radioactivity in Spleen,10 min,4.31 Uptake Units
same,Radioactivity in Stomach,10 min,0.82 Uptake Units
same,Radioactivity in Striata,10 min,2.17 Uptake Units
same,Radioactivity in Superior collicull,10 min,2.35 Uptake Units
same,Radioactivity in Testis,10 min,0.66 Uptake Units
same,Radioactivity in Thalamus,10 min,2.39 Uptake Units
same,Radioactivity in Urine,10 min,10.9 Uptake Units
same,Radioactivity in Visual cortex,10 min,2.80 Uptake Units
same,Radioactivity in Plasma,10 min,0.19 Uptake Units
same,Radioactivity in Whole blood,10 min,0.21 Uptake Units
same,Radioactivity in Cerebellum,15 min,1.81 Uptake Units
same,Radioactivity in Entorhinal cortex,15 min,1.93 Uptake Units
same,Radioactivity in Fat,15 min,0.75 Uptake Units
same,Radioactivity in Heart (ventricle),15 min,1.63 Uptake Units
same,Radioactivity in Hippocampus,15 min,1.74 Uptake Units
same,Radioactivity in Hypothalamus,15 min,1.85 Uptake Units
same,Radioactivity in Inferior collicull,15 min,2.22 Uptake Units
same,Radioactivity in Kidney,15 min,4.78 Uptake Units
same,Radioactivity in Large intestine,15 min,1.65 Uptake Units
same,Radioactivity in Lge. intestine content,15 min,0.03 Uptake Units
same,Radioactivity in Liver,15 min,6.87 Uptake Units
same,Radioactivity in Lung,15 min,10.7 Uptake Units
same,Radioactivity in Medulla with Pons,15 min,1.92 Uptake Units
same,Radioactivity in Olfactory bulbs,15 min,1.72 Uptake Units
same,Radioactivity in Olfactory tubercles,15 min,1.92 Uptake Units
same,Radioactivity in Prefrontal cortex,15 min,2.32 Uptake Units
same,Radioactivity in Skeletal muscle,15 min,1.07 Uptake Units
same,Radioactivity in Skin,15 min,0.51 Uptake Units
same,Radioactivity in Sm. intestine content,15 min,9.63 Uptake Units
same,Radioactivity in Small intestine,15 min,2.79 Uptake Units
same,Radioactivity in Somatosensory cortex,15 min,2.24 Uptake Units
same,Radioactivity in Spleen,15 min,4.46 Uptake Units
same,Radioactivity in Stomach,15 min,2.07 Uptake Units
same,Radioactivity in Striata,15 min,1.92 Uptake Units
same,Radioactivity in Superior collicull,15 min,2.01 Uptake Units
same,Radioactivity in Testis,15 min,0.66 Uptake Units
same,Radioactivity in Thalamus,15 min,2.21 Uptake Units
same,Radioactivity in Urine,15 min,22.0 Uptake Units
same,Radioactivity in Visual cortex,15 min,2.28 Uptake Units
same,Radioactivity in Plasma,15 min,0.17 Uptake Units
same,Radioactivity in Whole blood,15 min,0.19 Uptake Units
same,Radioactivity in Cerebellum,20 min,1.45* Uptake Units
same,Radioactivity in Entorhinal cortex,20 min,1.80 Uptake Units
same,Radioactivity in Fat,20 min,0.40* Uptake Units
same,Radioactivity in Heart (ventricle),20 min,1.10* Uptake Units
same,Radioactivity in Hippocampus,20 min,1.60 Uptake Units
same,Radioactivity in Hypothalamus,20 min,1.67 Uptake Units
same,Radioactivity in Inferior collicull,20 min,1.97 Uptake Units
same,Radioactivity in Kidney,20 min,3.19* Uptake Units
same,Radioactivity in Large intestine,20 min,1.27* Uptake Units
same,Radioactivity in Lge. intestine content,20 min,0.28* Uptake Units
same,Radioactivity in Liver,20 min,6.47* Uptake Units
same,Radioactivity in Lung,20 min,14.0* Uptake Units
same,Radioactivity in Medulla with Pons,20 min,1.68 Uptake Units
same,Radioactivity in Olfactory bulbs,20 min,1.46 Uptake Units
same,Radioactivity in Olfactory tubercles,20 min,1.73 Uptake Units
same,Radioactivity in Prefrontal cortex,20 min,1.94* Uptake Units
same,Radioactivity in Skeletal muscle,20 min,0.96* Uptake Units
same,Radioactivity in Skin,20 min,0.68* Uptake Units
same,Radioactivity in Sm. intestine content,20 min,6.08* Uptake Units
same,Radioactivity in Small intestine,20 min,2.16* Uptake Units
same,Radioactivity in Somatosensory cortex,20 min,2.03 Uptake Units
same,Radioactivity in Spleen,20 min,3.26* Uptake Units
same,Radioactivity in Stomach,20 min,0.67* Uptake Units
same,Radioactivity in Striata,20 min,1.65* Uptake Units
same,Radioactivity in Superior collicull,20 min,1.64 Uptake Units
same,Radioactivity in Testis,20 min,0.73* Uptake Units
same,Radioactivity in Thalamus,20 min,2.01 Uptake Units
same,Radioactivity in Urine,20 min,10.7* Uptake Units
same,Radioactivity in Visual cortex,20 min,2.07 Uptake Units
same,Radioactivity in Plasma,20 min,0.17 Uptake Units
same,Radioactivity in Whole blood,20 min,0.18 Uptake Units
same,Radioactivity in Cerebellum,30 min,0.55 Uptake Units
